Format in all cases: binding
One assay deals with T1, PI3K delta (PI3 Kd) (Homo sapiens, UniProt O00329).
T1 construct: endogenous in cells; host or cells: Jurkat, clone E6-1 (ATCC TIB-152) cell lysate
Briefly: kinobeads assay, PI3K delta. The conditions noted are these: Further Kinobeads Data; read-out: PI3Kd. An outline of the steps: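 IC50 values came from dose-response curves after test compound (1:3 series) competed with an immobilized phenylmorpholin-chromen affinity matrix for kinases in Jurkat lysate at 5 mg/mL protein. Eluted captured DNA-PK and PI3Kδ were measured by specific-antibody dot blot and infrared imaging. Buffer was Tris pH 7.4, NP40, MgCl2, NaCl, vanadate, DTT, NaF.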

The target of a further assay is T2, PI3Kalpha (PI3Ka) (Homo sapiens, UniProt P42336).
T2 construct: endogenous in cells; host or cells: cell lysate
T2 sequence (P42336 whole entry): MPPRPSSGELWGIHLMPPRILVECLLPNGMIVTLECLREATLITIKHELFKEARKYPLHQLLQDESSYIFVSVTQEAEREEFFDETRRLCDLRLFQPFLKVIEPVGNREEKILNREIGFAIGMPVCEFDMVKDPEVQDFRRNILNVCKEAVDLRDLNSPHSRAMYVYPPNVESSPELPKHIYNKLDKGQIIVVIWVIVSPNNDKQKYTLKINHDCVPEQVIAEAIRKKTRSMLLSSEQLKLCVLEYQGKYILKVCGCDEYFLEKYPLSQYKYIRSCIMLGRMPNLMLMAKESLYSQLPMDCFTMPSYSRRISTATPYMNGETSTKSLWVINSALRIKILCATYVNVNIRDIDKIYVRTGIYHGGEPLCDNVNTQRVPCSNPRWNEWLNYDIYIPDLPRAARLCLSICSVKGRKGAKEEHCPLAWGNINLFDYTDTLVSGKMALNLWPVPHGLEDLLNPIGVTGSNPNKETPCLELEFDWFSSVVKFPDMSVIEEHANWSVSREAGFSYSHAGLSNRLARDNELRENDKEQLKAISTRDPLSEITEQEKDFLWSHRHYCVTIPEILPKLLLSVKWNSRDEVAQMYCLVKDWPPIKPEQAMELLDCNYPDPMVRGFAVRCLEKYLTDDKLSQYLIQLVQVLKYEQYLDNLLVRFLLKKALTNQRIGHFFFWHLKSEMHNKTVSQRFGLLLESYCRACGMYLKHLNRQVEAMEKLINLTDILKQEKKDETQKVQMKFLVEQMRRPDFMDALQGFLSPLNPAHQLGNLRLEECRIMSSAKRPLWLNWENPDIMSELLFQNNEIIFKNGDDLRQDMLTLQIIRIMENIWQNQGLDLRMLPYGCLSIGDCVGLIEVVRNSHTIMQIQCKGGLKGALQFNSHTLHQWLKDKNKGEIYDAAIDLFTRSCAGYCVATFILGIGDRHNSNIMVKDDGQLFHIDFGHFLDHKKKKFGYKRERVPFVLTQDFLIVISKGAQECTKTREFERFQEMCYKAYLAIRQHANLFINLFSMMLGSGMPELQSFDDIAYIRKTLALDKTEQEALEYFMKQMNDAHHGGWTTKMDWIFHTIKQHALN
T2 sequence (P27986 whole entry partner): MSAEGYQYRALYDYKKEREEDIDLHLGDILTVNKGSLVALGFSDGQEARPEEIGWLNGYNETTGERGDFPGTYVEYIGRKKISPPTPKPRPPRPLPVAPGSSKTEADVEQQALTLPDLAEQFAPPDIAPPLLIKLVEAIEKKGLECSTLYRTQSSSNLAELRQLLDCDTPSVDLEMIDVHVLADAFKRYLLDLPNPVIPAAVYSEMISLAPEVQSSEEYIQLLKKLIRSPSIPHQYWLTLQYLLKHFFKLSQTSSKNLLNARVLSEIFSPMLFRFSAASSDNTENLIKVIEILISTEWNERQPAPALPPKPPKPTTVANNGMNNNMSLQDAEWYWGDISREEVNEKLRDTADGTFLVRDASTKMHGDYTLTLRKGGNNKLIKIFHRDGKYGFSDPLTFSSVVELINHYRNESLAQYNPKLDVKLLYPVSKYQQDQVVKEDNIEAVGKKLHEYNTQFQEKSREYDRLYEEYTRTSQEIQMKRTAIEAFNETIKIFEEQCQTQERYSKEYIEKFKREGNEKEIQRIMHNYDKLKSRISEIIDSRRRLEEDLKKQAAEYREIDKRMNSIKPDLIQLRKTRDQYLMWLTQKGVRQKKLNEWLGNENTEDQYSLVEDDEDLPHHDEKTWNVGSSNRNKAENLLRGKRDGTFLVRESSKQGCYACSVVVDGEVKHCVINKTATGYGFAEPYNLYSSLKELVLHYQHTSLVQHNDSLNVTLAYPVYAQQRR
Briefly: kinobeads assay, PI3Kalpha. Particulars: Further Kinobeads Data; for IC50: read-out: PI3Ka. The procedure, abridged: (§1)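 Competitive pull-down in cell lysate: compound (various conc.) + phenylmorpholin-chromen affinity beads, incubate, separate beads, elute. Multiplexed immunodetection of bound kinases; dose-response fit → IC50.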

The next assay addresses T3, PI3 Kgamma (PI3 Kg) (Homo sapiens, UniProt P48736).
T3 construct: endogenous in cells; host or cells: cell lysate
Briefly: kinobeads assay, PI3Kgamma. Particulars: Further Kinobeads Data; read-out: PI3Kg. The procedure, abridged: as §1

SMILES strings stand for the structures.

T3 sequence (P48736 whole entry): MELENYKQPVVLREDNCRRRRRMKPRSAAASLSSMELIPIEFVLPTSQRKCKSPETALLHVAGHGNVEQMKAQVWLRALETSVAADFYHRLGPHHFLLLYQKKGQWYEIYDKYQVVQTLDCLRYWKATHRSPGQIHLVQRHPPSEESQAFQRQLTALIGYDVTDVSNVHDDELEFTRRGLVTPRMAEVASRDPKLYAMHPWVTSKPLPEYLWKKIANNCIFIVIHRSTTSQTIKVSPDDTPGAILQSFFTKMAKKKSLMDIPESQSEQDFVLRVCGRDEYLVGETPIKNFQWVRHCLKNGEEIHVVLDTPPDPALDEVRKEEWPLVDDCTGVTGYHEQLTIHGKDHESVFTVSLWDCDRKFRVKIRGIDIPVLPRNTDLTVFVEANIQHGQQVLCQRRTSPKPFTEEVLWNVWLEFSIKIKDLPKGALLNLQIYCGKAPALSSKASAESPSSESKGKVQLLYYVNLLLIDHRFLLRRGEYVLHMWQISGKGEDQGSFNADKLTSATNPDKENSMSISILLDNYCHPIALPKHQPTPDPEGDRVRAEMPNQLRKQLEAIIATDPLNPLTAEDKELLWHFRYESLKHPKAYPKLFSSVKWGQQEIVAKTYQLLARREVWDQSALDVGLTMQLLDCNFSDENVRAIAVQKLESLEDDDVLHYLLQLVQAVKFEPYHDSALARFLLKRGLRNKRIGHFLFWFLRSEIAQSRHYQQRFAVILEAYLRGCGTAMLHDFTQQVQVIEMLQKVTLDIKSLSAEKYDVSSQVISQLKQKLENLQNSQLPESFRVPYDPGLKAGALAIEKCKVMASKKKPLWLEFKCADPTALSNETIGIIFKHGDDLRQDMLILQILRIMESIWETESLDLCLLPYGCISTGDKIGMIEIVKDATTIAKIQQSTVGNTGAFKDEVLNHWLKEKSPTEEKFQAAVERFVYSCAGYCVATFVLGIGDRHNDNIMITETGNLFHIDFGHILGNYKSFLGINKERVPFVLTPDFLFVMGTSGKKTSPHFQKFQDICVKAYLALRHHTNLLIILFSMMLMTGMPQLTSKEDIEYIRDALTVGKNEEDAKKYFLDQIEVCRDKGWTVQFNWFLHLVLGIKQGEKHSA
T1 sequence (O00329 whole entry): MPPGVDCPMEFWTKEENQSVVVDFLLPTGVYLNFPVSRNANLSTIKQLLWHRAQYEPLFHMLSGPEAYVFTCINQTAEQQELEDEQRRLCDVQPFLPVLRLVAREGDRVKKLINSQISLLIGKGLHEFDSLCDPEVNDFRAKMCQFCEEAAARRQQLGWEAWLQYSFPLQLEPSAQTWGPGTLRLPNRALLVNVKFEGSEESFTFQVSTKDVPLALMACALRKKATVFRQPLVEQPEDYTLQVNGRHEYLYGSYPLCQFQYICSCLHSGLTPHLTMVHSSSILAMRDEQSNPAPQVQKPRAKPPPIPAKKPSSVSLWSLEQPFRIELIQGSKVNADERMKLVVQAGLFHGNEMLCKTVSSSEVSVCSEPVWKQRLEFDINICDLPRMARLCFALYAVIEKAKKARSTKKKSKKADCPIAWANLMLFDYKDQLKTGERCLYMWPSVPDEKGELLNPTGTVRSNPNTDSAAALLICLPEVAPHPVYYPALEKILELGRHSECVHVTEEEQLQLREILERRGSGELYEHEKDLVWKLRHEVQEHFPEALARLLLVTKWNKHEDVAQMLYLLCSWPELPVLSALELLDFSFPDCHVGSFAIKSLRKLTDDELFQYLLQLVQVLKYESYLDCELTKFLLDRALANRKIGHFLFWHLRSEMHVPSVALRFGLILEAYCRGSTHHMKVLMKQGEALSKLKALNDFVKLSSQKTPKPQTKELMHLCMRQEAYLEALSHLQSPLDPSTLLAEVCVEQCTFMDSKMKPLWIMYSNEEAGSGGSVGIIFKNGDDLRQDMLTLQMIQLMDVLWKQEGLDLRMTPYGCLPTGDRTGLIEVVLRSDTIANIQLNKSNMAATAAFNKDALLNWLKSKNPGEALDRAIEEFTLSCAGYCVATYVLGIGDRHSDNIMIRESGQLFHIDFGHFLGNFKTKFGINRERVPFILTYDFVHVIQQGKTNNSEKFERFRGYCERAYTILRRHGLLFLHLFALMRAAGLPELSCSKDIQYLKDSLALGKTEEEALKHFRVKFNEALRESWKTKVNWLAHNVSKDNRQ
T1 sequence (P27986 whole entry partner): as the sequence (P27986 whole entry partner) above

As to `CCOC(=O)N1Cc2nc(-c3ccc(NC(=O)NCCF)cc3F)nc(N3CCOCC3)c2C1` [Example 170, ethyl 2-(2-fluoro-4-(3-(2-fluoroethyl)ureido)phenyl)-4-morpholino-5H-pyrrolo[3,4-d]pyrimidine-6(7H)-carboxylate], the IC50 is 1 to 10 µM at PI3K delta (PI3 Kd) and above 10 µM on PI3 Kgamma (PI3 Kg). Besides, the PI3Ka result on PI3Kalpha (PI3Ka) is on record as “D (D >10 μM)”.

`CCOC(=O)N1Cc2nc(-c3ccc(NC(=O)NCCO)cc3F)nc(N3CCOCC3)c2C1` [Example 171, ethyl 2-(2-fluoro-4-(3-(2-hydroxyethyl)ureido)phenyl)-4-morpholino-5H-pyrrolo[3,4-d]pyrimidine-6(7H)-carboxylate]: the IC50 on PI3K delta (PI3 Kd) and at PI3 Kgamma (PI3 Kg) was above 10 µM in each case. Besides, the PI3Ka entry at PI3Kalpha (PI3Ka) was “D (D >10 μM)”.

As to `CC(C)N1Cc2nc(-c3ccc(NC(=O)NC4CC4)cc3F)nc(N3CCOC[C@@H]3C)c2C1` [Example 172, (S)-1-cyclopropyl-3-(3-fluoro-4-(6-isopropyl-4-(3-methylmorpholino)-6,7-dihydro-5H-pyrrolo[3,4-d]pyrimidin-2-yl)phenyl)urea], the IC50 at PI3K delta (PI3 Kd), at PI3Kalpha (PI3Ka) and at PI3 Kgamma (PI3 Kg) was 1 to 10 µM throughout.

As to `COC(=O)N1Cc2nc(-c3ccc(NC(=O)NC4CC4)cc3F)nc(N3CCOCC3)c2C1` [Example 173, Methyl 2-(4-(3-cyclopropylureido)-2-fluorophenyl)-4-morpholino-5H-pyrrolo[3,4-d]pyrimidine-6(7H)-carboxylate], the IC50 at PI3K delta (PI3 Kd) and at PI3 Kgamma (PI3 Kg) was above 10 µM in each case. Moreover, the PI3Ka entry on PI3Kalpha (PI3Ka) was “D (D >10 μM)”.

Consider `CC(C)C(=O)N1Cc2nc(-c3ccc(NC(=O)NC4CC4)cc3F)nc(N3CCOC[C@@H]3C)c2C1` [Example 174, (S)-1-cyclopropyl-3-(3-fluoro-4-(6-isobutyryl-4-(3-methylmorpholino)-6,7-dihydro-5H-pyrrolo[3,4-d]pyrimidin-2-yl)phenyl)urea], for which the IC50 at PI3K delta (PI3 Kd) and on PI3 Kgamma (PI3 Kg) was above 10 µM throughout. Moreover, the PI3Ka entry at PI3Kalpha (PI3Ka) was “D (D >10 μM)”.

For `CCNC(=O)Nc1ccc(-c2nc3c(c(N4CCOC[C@@H]4C)n2)CCN(C(=O)N(C)C)C3)c(F)c1` [Example 176, (S)-2-(4-(3-ethylureido)-2-fluorophenyl)-N,N-dimethyl-4-(3-methylmorpholino)-5,6-dihydropyrido[3,4-d]pyrimidine-7(8H)-carboxamide], the IC50 at PI3K delta (PI3 Kd), at PI3Kalpha (PI3Ka) and at PI3 Kgamma (PI3 Kg) was 1 to 10 µM in each case.

In the case of `C[C@H]1COCCN1c1nc(-c2ccc(NC(=O)NC3CC3)cc2F)nc2c1CN(S(C)(=O)=O)C2` [Example 177, (S)-1-cyclopropyl-3-(3-fluoro-4-(4-(3-methylmorpholino)-6-(methylsulfonyl)-6,7-dihydro-5H-pyrrolo[3,4-d]pyrimidin-2-yl)phenyl)urea], the IC50 at PI3K delta (PI3 Kd) and on PI3 Kgamma (PI3 Kg) was above 10 µM throughout. Besides, the PI3Ka result on PI3Kalpha (PI3Ka) is reported as “D (D >10 μM)”.

On to `C[C@H]1COCCN1c1nc(-c2ccc(NC(=O)NC3CC3)cc2F)nc2c1CN(C(=O)N(C)C)C2` [Example 178, (S)-2-(4-(3-cyclopropylureido)-2-fluorophenyl)-N,N-dimethyl-4-(3-methylmorpholino)-5H-pyrrolo[3,4-d]pyrimidine-6(7H)-carboxamide], for which the IC50 on PI3K delta (PI3 Kd) and on PI3 Kgamma (PI3 Kg) was above 10 µM each time. Further, the PI3Ka result at PI3Kalpha (PI3Ka) was “D (D >10 μM)”.

Regarding `CCOC(=O)N1Cc2nc(-c3ccc(NC(=O)NC4CC4)cc3F)nc(N3CCOC[C@H]3C)c2C1` [Example 179, (R)-ethyl 2-(4-(3-cyclopropylureido)-2-fluorophenyl)-4-(3-methylmorpholino)-5H-pyrrolo[3,4-d]pyrimidine-6(7H)-carboxylate], the IC50 at PI3K delta (PI3 Kd) and on PI3 Kgamma (PI3 Kg) was above 10 µM throughout. On PI3Kalpha (PI3Ka), the PI3Ka entry is on record as “D (D >10 μM)”.

Turning to `COC(=O)N1Cc2nc(-c3ccc(NC(=O)NC4CC4)cc3F)nc(N3CCOC[C@H]3C)c2C1` [Example 180, (R)-methyl 2-(4-(3-cyclopropylureido)-2-fluorophenyl)-4-(3-methylmorpholino)-5H-pyrrolo[3,4-d]pyrimidine-6(7H)-carboxylate], the IC50 at PI3K delta (PI3 Kd) and on PI3 Kgamma (PI3 Kg) was above 10 µM in each case. Moreover, the PI3Ka result at PI3Kalpha (PI3Ka) is on record as “D (D >10 μM)”.

`COC(=O)N1Cc2nc(-c3ccc(NC(=O)NCCO)cc3F)nc(N3CCOC[C@@H]3C)c2C1` [Example 181, (S)-methyl 2-(2-fluoro-4-(3-(2-hydroxyethyl)ureido)phenyl)-4-(3-methylmorpholino)-5H-pyrrolo[3,4-d]pyrimidine-6(7H)-carboxylate]: the IC50 at PI3K delta (PI3 Kd) and on PI3 Kgamma (PI3 Kg) was above 10 µM each time. For the same compound, on PI3Kalpha (PI3Ka), the PI3Ka entry is listed as “D (D >10 μM)”.

Turning to `COC(=O)N1Cc2nc(-c3ccc(NC(=O)NCCF)cc3F)nc(N3CCOC[C@@H]3C)c2C1` [Example 183, (S)-methyl 2-(2-fluoro-4-(3-(2-fluoroethyl)ureido)phenyl)-4-(3-methylmorpholino)-5H-pyrrolo[3,4-d]pyrimidine-6(7H)-carboxylate], the IC50 at PI3K delta (PI3 Kd) and at PI3 Kgamma (PI3 Kg) was above 10 µM in each case. Further, the PI3Ka result at PI3Kalpha (PI3Ka) is on record as “D (D >10 μM)”.

On to `CC(C)N1Cc2nc(-c3ccc(NC(=O)NCCF)cc3F)nc(N3CCOCC3)c2C1` [Example 185, 1-(3-fluoro-4-(6-isopropyl-4-morpholino-6,7-dihyro-5H-pyrrolo[3,4-d]pyrimidin-2-yl)phenyl)-3-(2-fluoroethyl)urea], for which the results for the IC50 on PI3K delta (PI3 Kd), at PI3Kalpha (PI3Ka) and at PI3 Kgamma (PI3 Kg) were 1 to 10 µM, 1 to 10 µM and above 10 µM, respectively.

As to `CC(C)N1Cc2nc(-c3ccc(NC(=O)NCCF)cc3F)nc(N3CCOC[C@@H]3C)c2C1` [Example 186, (S)-1-(3-fluoro-4-(6-isopropyl-4-(3-methylmorpholino)-6,7-dihydro-5H-pyrrolo[3,4-d]pyrimidin-2-yl)phenyl)-3-(2-fluoroethyl)urea], the IC50 at PI3K delta (PI3 Kd) was 1 to 10 µM; on PI3 Kgamma (PI3 Kg), above 10 µM. For the same compound, the PI3Ka entry at PI3Kalpha (PI3Ka) was “D (D >10 μM)”.

`CC(C)N1Cc2nc(-c3ccc(NC(=O)NCCO)cc3F)nc(N3CCOC[C@@H]3C)c2C1` [Example 187, (S)-1-(3-fluoro-4-(6-isopropyl-4-(3-methylmorpholino)-6,7-dihydro-5H-pyrrolo[3,4-d]pyrimidin-2-yl)phenyl)-3-(2-hydroxyethyl)urea]: the IC50 at PI3K delta (PI3 Kd) and on PI3 Kgamma (PI3 Kg) was above 10 µM throughout. Moreover, at PI3Kalpha (PI3Ka), the PI3Ka entry is listed as “D (D >10 μM)”.

For `C[C@@H]1COCCN1c1nc(-c2ccc(NC(=O)NC3CC3)cc2F)nc2c1CN(C(=O)C1CC1)C2` [Example 188, (R)-1-(4-(6-(cyclopropanecarbonyl)-4-(3-methylmorpholino)-6,7-dihydro-5H-pyrrolo[3,4-d]pyrimidin-2-yl)-3-fluorophenyl)-3-cyclopropylurea], the IC50 was above 10 µM at PI3K delta (PI3 Kd), 1 to 10 µM on PI3Kalpha (PI3Ka) and above 10 µM at PI3 Kgamma (PI3 Kg).

For the compound `CC(C)NC(=O)N1CCc2c(nc(-c3ccc(NC(=O)NC4CC4)cc3F)nc2N2CCOC[C@@H]2C)C1` [Example 189, (S)-2-(4-(3-cyclopropylureido)-2-fluorophenyl)-N-isopropyl-4-(3-methylmorpholino)-5,6-dihydropyrido[3,4-d]pyrimidine-7(8H)-carboxamide], the IC50 on PI3K delta (PI3 Kd) and on PI3 Kgamma (PI3 Kg) was above 10 µM in each case. The PI3Ka result at PI3Kalpha (PI3Ka) is “D (D >10 μM)”.

In the case of `C[C@@H]1COCCN1c1nc(-c2ccc(NC(=O)NC3CC3)cc2F)nc2c1CN(C=O)C2` [Example 190, (R)-1-cyclopropyl-3-(3-fluoro-4-(6-formyl-4-(3-methylmorpholino)-6,7-dihydro-5H-pyrrolo[3,4-d]pyrimidin-2-yl)phenyl)urea], the IC50 at PI3K delta (PI3 Kd) and at PI3 Kgamma (PI3 Kg) was above 10 µM throughout. Besides, the PI3Ka result at PI3Kalpha (PI3Ka) is recorded as “D (D >10 μM)”.

As to `C[C@@H]1COCCN1c1nc(-c2ccc(NC(=O)NC3CC3)cc2F)nc2c1CN(S(C)(=O)=O)C2` [Example 191, (R)-1-cyclopropyl-3-(3-fluoro-4-(4-(3-methylmorpholino)-6-(methylsulfonyl)-6,7-dihydro-5H-pyrrolo[3,4-d]pyrimidin-2-yl)phenyl)urea], the IC50 at PI3K delta (PI3 Kd) and on PI3 Kgamma (PI3 Kg) was above 10 µM each time. Also, the PI3Ka result on PI3Kalpha (PI3Ka) is listed as “D (D >10 μM)”.
